Assays:
Type in all cases: in vivo
Conditions in all cases: scale 0 to 100
[1] = system: Italian ryegrass (Lolium multiflorum); test: Test D preemergence
Text: (§1) Seeds of plant species selected from bluegrass (annual bluegrass, Poa annua), blackgrass (Alopecurus myosuroides), canarygrass (Phalaris minor), chickweed (common chickweed, Stellaria media), cutleaf geranium (Geranium dissectum), galium (catchweed bedstraw, Galium aparine), downy bromegrass (Bromus tectorum), field poppy (Papaver rhoeas), field violet (Viola arvensis), green foxtail (Setaria viridis), deadnettle (henbit deadnettle, Lamium amplexicaule), Italian ryegrass (Lolium multiflorum), kochia (Kochia scoparia), lambsquarters (Chenopodium album), oilseed rape (Brassica napus), pigweed (Amaranthus retroflexus), chamomile (scentless chamomile, Matricaria inodora), Russian thistle (Salsola kali), speedwell (bird's-eye speedwell, Veronica persica), spring barley (Hordeum vulgare), spring wheat (Triticum aestivum), wild buckwheat (Polygonum convolvulus), wild mustard (Sinapis arvensis), wild oat (Avenafatua), wild radish (Raphanus raphanistrum), windgrass (Apera spica-venti), winter barley (Hordeum vulgare), and winter wheat (Triticum aestivum) were planted into a silt loam soil and treated preemergence with test chemicals formulated in a non-phytotoxic solvent mixture which included a surfactant.
(§2) At the same time, these species were planted in pots containing Redi-Earth® planting medium (Scotts Company, 14111 Scottslawn Road, Marysville, Ohio 43041) comprising spaghnum peat moss, vermiculite, wetting agent and starter nutrients and treated with postemergence applications of the test chemicals formulated in the same manner. Plants ranged in height from 2 to 18 cm (1- to 4-leaf stage). Treated plants and controls were maintained in a controlled growth environment for 14 to 21 days after which time all species were compared to controls and visually evaluated. Plant response ratings, summarized in Table D, are based on a scale of 0 to 100 where 0 is no effect and 100 is complete control. A dash (-) response means no test result.

[2] = system: blackgrass (Alopecurus myosuroides); test: Test D preemergence
Text: as §1, §2

[3] = system: bluegrass (annual bluegrass, Poa annua); test: Test D preemergence
Text: as §1, §2

[4] = system: canarygrass (Phalaris minor); test: Test D preemergence
Text: as §1, §2

[5] = system: chickweed (common chickweed, Stellaria media); test: Test D preemergence
Text: as §1, §2

[6] = system: deadnettle (henbit deadnettle, Lamium amplexicaule); test: Test D preemergence
Text: as §1, §2

[7] = system: downy bromegrass (Bromus tectorum); test: Test D preemergence
Text: as §1, §2

[8] = system: field poppy (Papaver rhoeas); test: Test D preemergence
Text: as §1, §2

[9] = system: galium (catchweed bedstraw, Galium aparine); test: Test D preemergence
Text: as §1, §2

[10] = system: kochia (Kochia scoparia); test: Test D preemergence
Text: as §1, §2

[11] = system: oilseed rape (Brassica napus); test: Test D preemergence
Text: as §1, §2

[12] = system: pigweed (Amaranthus retroflexus); test: Test D preemergence
Text: as §1, §2

[13] = system: speedwell (bird's-eye speedwell, Veronica persica); test: Test D preemergence
Text: as §1, §2

[14] = system: spring barley (Hordeum vulgare); test: Test D preemergence
Text: as §1, §2

[15] = system: spring wheat (Triticum aestivum); test: Test D preemergence
Text: as §1, §2

[16] = system: wild buckwheat (Polygonum convolvulus); test: Test D preemergence
Text: as §1, §2

[17] = system: wild mustard (Sinapis arvensis); test: Test D preemergence
Text: as §1, §2

[18] = system: windgrass (Apera spica-venti); test: Test D preemergence
Text: as §1, §2

[19] = system: winter barley (Hordeum vulgare); test: Test D preemergence
Text: as §1, §2

[20] = system: canarygrass (Phalaris minor); test: Test D postemergence
Method in brief: (§3)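 Assessment is visual, relative to untreated controls, 14 to 21 days after application, with 100 meaning complete control. Seeds in silt loam receive preemergence spray; seedlings at the 1- to 4-leaf stage receive postemergence spray.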

[21] = system: deadnettle (henbit deadnettle, Lamium amplexicaule); test: Test D postemergence
Method in brief: as §3

SMILES: Fc1cnc(Oc2c(F)cccc2Oc2ncc(Cl)cn2)nc1 [Compound 23]
- Plant response rating, Ryegrass, Italian ([1]; 16 g ai/ha): 5
- Plant response rating, Ryegrass, Italian ([1]; 31 g ai/ha): 10
- Plant response rating, Ryegrass, Italian ([1]; 62 g ai/ha): 35
- Plant response rating, Ryegrass, Italian ([1]; 125 g ai/ha): 75
- Plant response rating, Blackgrass ([2]; 16 g ai/ha): 20
- Plant response rating, Blackgrass ([2]; 31 g ai/ha): 30
- Plant response rating, Blackgrass ([2]; 62 g ai/ha): 70
- Plant response rating, Blackgrass ([2]; 125 g ai/ha): 85
- Plant response rating, Bluegrass ([3]; 16 g ai/ha): 20
- Plant response rating, Bluegrass ([3]; 31 g ai/ha): 65
- Plant response rating, Bluegrass ([3]; 62 g ai/ha): 80
- Plant response rating, Bluegrass ([3]; 125 g ai/ha): 100
- Plant response rating, Canarygrass ([4]; 16 g ai/ha): 60
- Plant response rating, Canarygrass ([4]; 31 g ai/ha): 65
- Plant response rating, Canarygrass ([4]; 62 g ai/ha): 80
- Plant response rating, Canarygrass ([4]; 125 g ai/ha): 85
- Plant response rating, Chickweed ([5]; 16 g ai/ha): 50
- Plant response rating, Chickweed ([5]; 31 g ai/ha): 100
- Plant response rating, Chickweed ([5]; 62 g ai/ha): 100
- Plant response rating, Chickweed ([5]; 125 g ai/ha): 100
- Plant response rating, Deadnettle ([6]; 16 g ai/ha): 15
- Plant response rating, Deadnettle ([6]; 31 g ai/ha): 65
- Plant response rating, Deadnettle ([6]; 62 g ai/ha): 80
- Plant response rating, Deadnettle ([6]; 125 g ai/ha): 95
- Plant response rating, Bromegrass, Downy ([7]; 16 g ai/ha): 5
- Plant response rating, Bromegrass, Downy ([7]; 31 g ai/ha): 25
- Plant response rating, Bromegrass, Downy ([7]; 62 g ai/ha): 35
- Plant response rating, Bromegrass, Downy ([7]; 125 g ai/ha): 70
- Plant response rating, Field Poppy ([8]; 16 g ai/ha): 65
- Plant response rating, Field Poppy ([8]; 31 g ai/ha): 80
- Plant response rating, Field Poppy ([8]; 62 g ai/ha): 90
- Plant response rating, Field Poppy ([8]; 125 g ai/ha): 98
- Plant response rating, Galium ([9]; 16 g ai/ha): 70
- Plant response rating, Galium ([9]; 31 g ai/ha): 75
- Plant response rating, Galium ([9]; 62 g ai/ha): 95
- Plant response rating, Galium ([9]; 125 g ai/ha): 100
- Plant response rating, Kochia ([10]; 16 g ai/ha): 15
- Plant response rating, Kochia ([10]; 31 g ai/ha): 60
- Plant response rating, Kochia ([10]; 62 g ai/ha): 60
- Plant response rating, Kochia ([10]; 125 g ai/ha): 100
- Plant response rating, Oilseed Rape ([11]; 16 g ai/ha): 80
- Plant response rating, Oilseed Rape ([11]; 31 g ai/ha): 85
- Plant response rating, Oilseed Rape ([11]; 62 g ai/ha): 98
- Plant response rating, Oilseed Rape ([11]; 125 g ai/ha): 100
- Plant response rating, Pigweed ([12]; 16 g ai/ha): 98
- Plant response rating, Pigweed ([12]; 31 g ai/ha): 100
- Plant response rating, Pigweed ([12]; 62 g ai/ha): 100
- Plant response rating, Pigweed ([12]; 125 g ai/ha): 100
- Plant response rating, Speedwell ([13]; 16 g ai/ha): 100
- Plant response rating, Speedwell ([13]; 31 g ai/ha): 100
- Plant response rating, Speedwell ([13]; 62 g ai/ha): 100
- Plant response rating, Speedwell ([13]; 125 g ai/ha): 100
- Plant response rating, Barley, Spring ([14]; 16 g ai/ha): 0
- Plant response rating, Barley, Spring ([14]; 31 g ai/ha): 5
- Plant response rating, Barley, Spring ([14]; 62 g ai/ha): 30
- Plant response rating, Barley, Spring ([14]; 125 g ai/ha): 75
- Plant response rating, Wheat, Spring ([15]; 16 g ai/ha): 0
- Plant response rating, Wheat, Spring ([15]; 31 g ai/ha): 5
- Plant response rating, Wheat, Spring ([15]; 62 g ai/ha): 30
- Plant response rating, Wheat, Spring ([15]; 125 g ai/ha): 45
- Plant response rating, Buckwheat, Wild ([16]; 16 g ai/ha): 40
- Plant response rating, Buckwheat, Wild ([16]; 31 g ai/ha): 50
- Plant response rating, Buckwheat, Wild ([16]; 62 g ai/ha): 100
- Plant response rating, Buckwheat, Wild ([16]; 125 g ai/ha): 100
- Plant response rating, Mustard, Wild ([17]; 16 g ai/ha): 98
- Plant response rating, Mustard, Wild ([17]; 31 g ai/ha): 100
- Plant response rating, Mustard, Wild ([17]; 62 g ai/ha): 100
- Plant response rating, Mustard, Wild ([17]; 125 g ai/ha): 100
- Plant response rating, Windgrass ([18]; 16 g ai/ha): 20
- Plant response rating, Windgrass ([18]; 31 g ai/ha): 75
- Plant response rating, Windgrass ([18]; 62 g ai/ha): 98
- Plant response rating, Windgrass ([18]; 125 g ai/ha): 100
- Plant response rating, Barley, Winter ([19]; 16 g ai/ha): 0
- Plant response rating, Barley, Winter ([19]; 31 g ai/ha): 0
- Plant response rating, Barley, Winter ([19]; 62 g ai/ha): 30
- Plant response rating, Barley, Winter ([19]; 125 g ai/ha): 70
- Plant response rating, Canarygrass ([20]; 16 g ai/ha): 10
- Plant response rating, Canarygrass ([20]; 31 g ai/ha): 20
- Plant response rating, Canarygrass ([20]; 62 g ai/ha): 25
- Plant response rating, Canarygrass ([20]; 125 g ai/ha): 55
- Plant response rating, Deadnettle ([21]; 16 g ai/ha): 10
- Plant response rating, Deadnettle ([21]; 31 g ai/ha): 20
- Plant response rating, Deadnettle ([21]; 62 g ai/ha): 55
- Plant response rating, Deadnettle ([21]; 125 g ai/ha): 70
